Like-named read-outs stand apart in the source and are kept apart here.
Tests used:
JAK2 = JAK2 (Homo sapiens (Human), UniProt O60674); experiment: HTRF kinase assay, JAK2; type: biochemical
Source text: A kinase assay with HTRF was used to observe JAK activity and calculate the IC50s of compounds disclosed herein. HTRF is an enzymatic assay used to determine the amount of phosphorylated peptide. FRET (Fluorescence Resonance Energy Transfer) is based on the transfer of energy between two fluorophores—a donor and an acceptor—when in close proximity. Molecular interactions between biomolecules can be assessed by coupling each partner with a fluorescent label and by detecting the level of energy transfer. The amount of phopshorylated peptide can be detected using a combination of a Eu 3+Cryptate labeled anti-phospho residue antibody, SA-XL665 and a biotinylated substrate. The signal is proportional to the concentration of phospho-residues.
Equipment Required • 1. […] Plate centrifuge • 3. Plate shaker • 4. […] Single channel and multi-channel pipettes • 6. Microplate reader (Pherastar)]
Stock and Final Assay Concentrations (FAC) • 1. All reference and test compounds are made at a concentration of 10 mM in DMSO. Compounds are serially diluted in DMSO and a FAC starting from 10 μM to 10 point 3 fold serial dilutions is arrived. For Ruxolitinib the starting FAC is 1 μM. FAC of DMSO is 1%. • 2. Enzyme stock and FAC
• JAK-1: Invtirogen Cat: PR8767C • JAK-2: Invtirogen Cat: PR7820B • JAK-3: Invtirogen Cat: PR7507B • 3. Substrate (synthetic peptide-Biotinylated-N-terminal tag-[…] from Biopeptide) stock and FAC
• Adenosine 5′-triphosphate disodium salt hydrate: Sigma Cat: A26209 • 5. […] Buffers • Base buffer (for 50 ml)
• HTRF buffer: • 50 mM Tris-HCl, pH—7.5 • 100 mM NaCl • 0.1% BSA • 0.05% Tween20 • 0.5 mM EDTA
To a 384 well black-plate: • 1. Add 17 μL of the buffer to each well of the 384-well black plate • 2. […] Add 5 μl of the enzyme to each well of the plate • 4. Add 10 μl of the substrate and ATP mix to all the wells • 5. Cover with plate sealer • 6. […] Incubate at room temperature for 1 hour on shaker • 8. […] Add 37.5 μL of the HTRF mix to these wells. • 9. Incubate the plate at room temperature on shaker for 45 minutes. • 10.
(§1) The percent inhibition is calculated in the excel analysis template and the IC50 values are subsequently determined using a sigmoidal dose-response curve (variable slope) using GraphPad Prism® 5 software.

BRD4-BD1 = BRD4-BD1 (Homo sapiens (Human), UniProt O60885); experiment: AlphaLisa bromodomain binding assay, BRD4-BD1
Source text: An AlphaLisa assay was used to observe bromodomain binding and measure IC50s for the compounds disclosed herein. An AlphaLisa assay is a bead-based assay used to detect interactions between bromodomains and polyacetylated histone peptides. Donor and acceptor beads bound to target and ligand are brought into proximity by this protein-protein interaction.
Equipment Required • 1. […] Plate centrifuge • 3. Plate shaker • 4. […] Single channel and multi-channel pipettes • 6. Microplate reader (Pherastar)
Stock and Final Assay Concentrations (FAC) • 1. All reference and test compounds are made at a concentration of 10 mM in DMSO. Compounds are serially diluted in DMSO and a FAC starting from 10 μM to 10 point 3 fold serial dilutions is arrived. FAC of DMSO is 1%. • 2. Enzyme stock and FAC
Biotinylated substrate (Acetylated histone H4, biotinylated substrate—cat no. AS64989-025, Anaspec) stock and FAC
• 4. Acceptor and donor beads stock and FAC
Buffers • For the enzyme and substrate dilution following buffer is used (for 50 ml) • HEPES: 50 mM 2.5 ml • NaCl: 25 mM 1.25 ml • DTT: 10 mM 0.05 ml • BSA: 0.1% 0.05 g • MilliQ water: 45.7 ml • For dilution of acceptor and donor beads AlphaLISA 5× epigenetics Buffer Perkin Elmer (Cat: AL008C) is used at 1× concentration.
Procedure • 1. […] Tap the plate gently • 3. […] Cover with plate sealer • 5. […] Incubate the plate at room temperature for 10 minutes • 7. Add 10 μl of the substrate • 8. Cover with plate sealer • 9. […] Cover with plate sealer • 14. […] Cover with plate sealer • 18.
as §1

[1] = Table 6, read-out: BRD4(1) IC50

Chain of JAK2 (O60674 whole entry): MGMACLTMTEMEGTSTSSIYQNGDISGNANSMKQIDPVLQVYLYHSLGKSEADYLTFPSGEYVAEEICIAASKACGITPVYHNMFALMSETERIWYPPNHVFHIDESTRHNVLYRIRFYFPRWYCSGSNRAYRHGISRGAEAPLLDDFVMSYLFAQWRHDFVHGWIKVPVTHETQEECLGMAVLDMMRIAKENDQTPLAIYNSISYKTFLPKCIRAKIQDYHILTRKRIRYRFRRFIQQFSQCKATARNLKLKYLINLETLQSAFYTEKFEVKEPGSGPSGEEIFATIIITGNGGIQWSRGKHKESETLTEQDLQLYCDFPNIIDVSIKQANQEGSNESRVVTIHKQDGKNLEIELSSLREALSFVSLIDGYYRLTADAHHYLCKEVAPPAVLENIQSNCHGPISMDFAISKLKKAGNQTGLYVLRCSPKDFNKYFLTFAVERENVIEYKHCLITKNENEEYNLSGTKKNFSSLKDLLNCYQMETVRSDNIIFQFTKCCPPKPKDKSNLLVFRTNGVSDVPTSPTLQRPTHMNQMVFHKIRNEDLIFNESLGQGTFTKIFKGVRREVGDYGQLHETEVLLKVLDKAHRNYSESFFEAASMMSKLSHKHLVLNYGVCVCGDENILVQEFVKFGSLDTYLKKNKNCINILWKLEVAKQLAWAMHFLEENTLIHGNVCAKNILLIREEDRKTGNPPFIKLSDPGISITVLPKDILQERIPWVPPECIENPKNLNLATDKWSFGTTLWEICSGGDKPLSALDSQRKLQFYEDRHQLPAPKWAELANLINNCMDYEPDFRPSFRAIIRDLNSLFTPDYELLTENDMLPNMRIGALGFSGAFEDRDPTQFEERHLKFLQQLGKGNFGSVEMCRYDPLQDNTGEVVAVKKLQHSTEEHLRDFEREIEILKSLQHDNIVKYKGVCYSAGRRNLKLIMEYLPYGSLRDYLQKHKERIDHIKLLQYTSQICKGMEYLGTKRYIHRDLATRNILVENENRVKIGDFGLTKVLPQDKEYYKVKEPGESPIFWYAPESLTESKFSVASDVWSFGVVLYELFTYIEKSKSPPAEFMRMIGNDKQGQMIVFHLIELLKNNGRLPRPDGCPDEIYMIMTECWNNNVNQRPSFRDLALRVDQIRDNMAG

| Compound | IC50 (JAK2; Table 6) [µM] | IC50 (BRD4-BD1; [1]) [µM] | also measured |
| --- | --- | --- | --- |
| CC(C)(C)S(=O)(=O)N1CCc2ccc(-n3ccc4cnc(Nc5ccc(N6CCNCC6)cc5)nc43)cc21 | 0.04 | 1.94 |  |
| CN1CCN(c2ccc(Nc3nc(Nc4cccc(NS(=O)(=O)C(C)(C)C)c4)c4ncsc4n3)cc2)CC1 | 10 | 1.54 |  |
| CNCCNC(=O)Cc1ccc(Nc2ncc3ccn(-c4ccc(F)c(NS(=O)(=O)C(C)(C)C)c4)c3n2)cc1F | 0.251 | 0.142 |  |
| CN(C)C1CCN(c2ccc(Nc3ncc4ccn(-c5ccc(F)c(NS(=O)(=O)C(C)(C)C)c5)c4n3)cc2F)CC1 [drawing 373] | 0.027 | 0.153 |  |
| CC1CNCCC1Nc1nc(Nc2cccc(NS(=O)(=O)C(C)(C)C)c2)c2ccsc2n1 (centres unmarked) | 10 | 1.98 |  |
| Cc1cnc(Nc2ccc(N3CCN(C)CC3)cc2)nc1Nc1cccc(NS(=O)(=O)C(C)(C)C)c1 [drawing 276] | 0.008 | 0.164 |  |
| CC(C)(C)S(=O)(=O)Nc1cccc(-c2csc3cnc(Nc4ccc5c(c4)CC4CNCCN54)nc23)c1 (centres unmarked) | 0.005 | 0.318 |  |
| CN1CCN(c2ccc(Nc3ncc4ccn(-c5cccc(NC(=O)C(C)(C)C)c5)c4n3)cc2)CC1 | 0.054 | 10 |  |
| CC(C)(C)S(=O)(=O)Nc1cccc(Nc2nc(NC3CCNCC3)nc3sccc23)c1 [drawing 270] | 10 | 0.257 |  |
| CN1CCC(NC(=O)c2ccc(Nc3ncc4ccn(-c5cccc(NS(=O)(=O)C6CC6)c5)c4n3)cc2F)CC1 | 0.013 | 0.856 |  |
| CN(C)C1CCN(c2ccc(Nc3ncc4ccn(-c5cccc(NS(=O)(=O)C6(C)CC6)c5)c4n3)cc2)CC1 | 0.006 | 0.636 |  |
| CN(C)C1CCN(C(=O)c2ccc(Nc3ncc4ccn(-c5ccc(F)c(NS(=O)(=O)C(C)(C)C)c5)c4n3)cc2F)CC1 | 0.17 | 0.123 |  |
| O=S(=O)(Nc1cccc(-n2ccc3cnc(Nc4ccc(C5CCNCC5)cc4)nc32)c1)C1CC1 | 0.071 | 3.21 |  |
| CN(C)C1CCN(c2ccc(Nc3ncc4ccn(-c5cccc(NS(=O)(=O)C(C)(C)C)c5)c4n3)cc2F)CC1 [drawing 65] |  |  | IC50 (JAK2; Table 3): 0.0044 µM |
| CC(C)(C)S(=O)(=O)Nc1cccc(-n2ccc3cnc(Nc4ccc(N5CCNCC5)cc4)nc32)c1 [drawing 306] | 0.01 | 0.394 |  |
| COc1cc(Nc2ncc3scc(-c4cccc(NS(=O)(=O)C(C)(C)C)c4)c3n2)ccc1N1CCC(N(C)C)CC1 | 0.001 | 0.56 |  |
| CN1CCN(c2ccc(Nc3ncc4ccn(-c5ccccc5NS(=O)(=O)C(C)(C)C)c4n3)cc2)CC1 | 2.4 | 10 |  |
| Cc1cnc(Nc2ccc(N3CCN(C)CC3)cc2)nc1Nc1cccc(NS(=O)(=O)C(C)(C)C)c1 [drawing 231] | 0.008 | 0.133 |  |
| Cc1noc(C)c1-c1cccc(-n2ccc3cnc(Nc4ccc(N5CCN(C)CC5)cc4)nc32)c1 [drawing 67] |  |  | IC50 (JAK2; Table 3): 0.003 µM |
| CN(C)C1CCN(Cc2ccc(Nc3ncc4ccn(-c5ccc(F)c(NS(=O)(=O)C(C)(C)C)c5)c4n3)cc2F)CC1 | 0.265 | 0.105 |  |
| CC(C)(C)S(=O)(=O)Nc1cc(-n2ccc3cnc(Nc4ccc(N5CCC(C(=O)O)CC5)c(F)c4)nc32)ccc1F | 0.12 | 1.1 |  |
| CNC(=O)C1CCN(c2ccc(Nc3ncc4ccn(-c5ccc(F)c(NS(=O)(=O)C(C)(C)C)c5)c4n3)cc2F)CC1 | 0.123 | 0.735 |  |
| CC(C)(C)S(=O)(=O)Nc1cccc(-n2ccc3cnc(Nc4ccc(N5CCNCC5)c(F)c4)nc32)c1 [drawing 432] | 0.008 | 0.174 |  |
| CN1CCN(c2ccc(Nc3nc(Nc4ccc(Cl)c(NS(=O)(=O)C(C)(C)C)c4)c4sccc4n3)cc2)CC1 | 10 | 2.68 |  |
| CC(C)(C)S(=O)(=O)Nc1cc(Nc2nc(NC3CCNCC3)nc3ccsc23)ccc1Cl | 10 | 3.27 |  |

| Compound | IC50 (JAK2; Table 6) [µM] | IC50 (BRD4-BD1; [1]) [µM] | also measured |
| --- | --- | --- | --- |
| CN(C)C1CCN(c2ccc(Nc3ncc4ccn(-c5ccc(F)c(NS(=O)(=O)C(C)(C)C)c5)c4n3)cc2F)CC1 [drawing 397] | 0.027 | 0.063 |  |
| CNc1nc(NC2CCNCC2)nc2c1ccn2-c1cccc(NS(=O)(=O)C(C)(C)C)c1 | 10 | 0.774 |  |
| COc1cc(Nc2ncc3ccn(-c4cccc(NS(=O)(=O)C5CC5)c4)c3n2)ccc1N1CCN(C)CC1 | 0.015 | 1.81 |  |
| Cc1cnc(Nc2ccc(N3CCN(C)CC3)cc2)nc1Nc1cccc(NS(=O)(=O)C(C)(C)C)c1 [drawing 196] | 0.01 | 0.18 |  |
| CN1CCC(Nc2ncc3ccn(-c4cccc(NS(=O)(=O)C(C)(C)C)c4)c3n2)CC1 | 1000 | 0.284 |  |
| Cc1sc2c(c1C)C(c1ccc(Cl)cc1)=N[C@@H](CC(=O)OC(C)(C)C)c1nnc(C)n1-2 | 10 |  |  |
| CCC1(S(=O)(=O)Nc2cc(-n3ccc4cnc(Nc5ccc(N6CCC(N(C)C)CC6)c(F)c5)nc43)ccc2F)CC1 | 0.024 | 0.963 |  |
| CN1CCN(c2ccc(Nc3ncc4ccn(-c5cccc(NS(=O)(=O)C6CC6)c5)c4n3)cc2)CC1 [drawing 74] |  |  | IC50 (JAK2; Table 5): 0.0025 µM; IC50 (BRD4-BD1; Table 5, read-out: BRD4 IC50): 0.355 µM |
| CN(C)C(=O)C1CCN(c2ccc(Nc3ncc4ccn(-c5ccc(F)c(NS(=O)(=O)C(C)(C)C)c5)c4n3)cc2F)CC1 | 0.129 | 0.491 |  |
| CNC1CCN(c2ccc(Nc3ncc4ccn(-c5cccc(NS(=O)(=O)C(C)(C)C)c5)c4n3)cc2)C1 (centres unmarked) | 0.017 | 0.538 |  |
| CN(C)C1CCN(c2ccc(Nc3ncc4ccn(-c5cccc(NS(=O)(=O)C(C)(C)C)c5)c4n3)cc2)CC1 [drawing 409] | 0.0065 | 0.229 |  |
| O=S(=O)(Nc1cccc(-n2ccc3cnc(Nc4ccc(N5CCNCC5)cc4)nc32)c1)C1CC1 [drawing 63] |  |  | IC50 (JAK2; Table 3): 0.002 µM |
| CC(=O)N1CCN(c2ccc(Nc3ncc4ccn(-c5cccc(NS(=O)(=O)C(C)(C)C)c5)c4n3)cc2)CC1 | 0.045 |  |  |
| CN1CCN(c2ccc(Nc3ncc4ccn(-c5cccc(NS(=O)(=O)C6CC6)c5)c4n3)cc2)CC1 [drawing 64] |  |  | IC50 (JAK2; Table 3): 0.0043 µM |
| O=S(=O)(Nc1cccc(-n2ccc3cnc(Nc4ccc(N5CCNCC5)cc4)nc32)c1)C1CC1 [drawing 68] |  |  | IC50 (JAK2; Table 3): 0.005 µM |
| CN1CCN(c2ccc(Nc3ncc4scc(-c5cccc(NS(=O)(=O)C(C)(C)C)c5)c4n3)cc2)CC1 |  |  | IC50 (JAK2; Table 3): 0.0048 µM |
| CN1CCN(c2ccc(Nc3ncc4ccn(-c5ccc(CNS(=O)(=O)C(C)(C)C)cc5)c4n3)cc2)CC1 [drawing 70] |  |  | IC50 (JAK2; Table 4): 0.00018 µM |
| CN1CCN(c2ccc(Nc3ncc4ccn(-c5cccc(NS(=O)(=O)c6ccccc6)c5)c4n3)cc2)CC1 [drawing 62] |  |  | IC50 (JAK2; Table 3): 0.003 µM |
| CN1CCN(c2ccc(Nc3nccc(Nc4cccc5c4CC(=O)N5)n3)cc2)CC1 | 0.387 |  |  |
| Cc1cnc(Nc2ccc(N3CCN(C)CC3)cc2)nc1-n1ccc(C(=O)NC2CC2)c1 | 0.03 |  |  |
| O=C1Cc2c(cccc2-c2ccnc(Nc3ccccc3)n2)N1 | 6.78 |  |  |
| CN1CCN(c2ccc(Nc3ncc4ccn(-c5cccc(NS(=O)(=O)C6CC6)c5)c4n3)cc2)CC1 [drawing 61] |  |  | IC50 (JAK2; Table 3): 0.0025 µM |
| COc1cccc(Nc2nccc(-c3cccc4c3CC(=O)N4)n2)c1 | 2.25 |  |  |
| CN1CCN(c2ccc(Nc3ncc4ccn(-c5ccc6c(c5)CCN6S(=O)(=O)C(C)(C)C)c4n3)cc2)CC1 [drawing 71] |  |  | IC50 (JAK2; Table 4): 0.0006 µM |
| CN1CCN(c2ccc(Nc3ncc4ccn(-c5ccc(NS(=O)(=O)C(C)(C)C)cc5)c4n3)cc2)CC1 [drawing 69] |  |  | IC50 (JAK2; Table 4): 0.0007 µM |
